According to PubChem BioAssay (NCI):
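Step 1: Grow cells in 96-well plates. Step 2: Expose to compound for 48 hours at 5 concentrations. Step 3: Interpolate endpoints linearly; if unreached, use highest concentration. GI50 is the concentration that inhibits growth by half. TGI is the concentration that stops growth completely.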

Test system: MDA-MB-468 breast
Assay: growth of human tumour cells (NCI), 48 h

Row | Compound | GI50 | TGI
1 | O=C(/C=C/c1cc(Cl)ccc1Cl)Nc1ncc(Cc2ccc(Cl)cc2)s1 | 277 nM | 3080 nM
2 | Cc1nc(Sc2nc3ccc([N+](=O)[O-])cc3s2)sc1C | 1620 nM | 3590 nM
3 | CC/C(Cc1ccccc1)=C(/c1ccc(O)cc1)c1ccc(OCCN2CCCC2)cc1 | 1660 nM | 3280 nM
4 | C[C@H](NC(=O)c1c(C(F)F)nn(C)c1Oc1cccc(C(F)(F)F)c1)c1ccc(C(=O)O)cc1 | > 100000 nM | > 100000 nM
5 | CCc1nc2cc(/C=C/C(=O)NO)ccc2c(=O)n1CCc1ccc(OC)cc1 | 1690 nM | 5570 nM
6 | COc1cc(-c2nccc3cc4c(cc23)OCO4)cc(OC)c1OC | 1620 nM | 6240 nM
7 | COc1ccc(-c2nsc3c2NC(=O)CC3c2cccc(Cl)c2)cc1 (stereo not drawn) | 735 nM | 11000 nM
8 | CCCCN1C(=O)/C(=c2\sc3n(c2=O)C2C(NN=3)N(CC)C(=O)N2CC)c2ccccc21 (stereo not drawn) | 361 nM | 2390 nM
9 | COc1cc2nc(-c3cccc4cccnc34)nc(NC3CCN(Cc4ccccc4)CC3)c2cc1OC | 1430 nM | 2960 nM
10 | CC(C)(C)c1nc(-c2cccc(NS(=O)(=O)c3c(F)cccc3F)c2F)c(-c2ccnc(N)n2)s1 | 31700 nM | > 100000 nM
11 | CC(=O)O[C@H](C[C@H](C(C)C)N(C)C(=O)[C@@H](NC(=O)[C@H]1CCCCN1C)C(C)C)c1cccc(C(=O)N[C@@H](Cc2ccccc2)C[C@H](C)C(=O)O)n1 | 5.39 nM | 102 nM
12 | COc1ccc(-c2nn3ncccc3c2-c2ccnc(Nc3ccc4c(c3)OCCO4)n2)cc1 | 4000 nM | > 21100 nM
13 | O=C(Oc1ccccc1)C(Br)C(Br)c1ccccc1 (stereo not drawn) | 1610 nM | 3370 nM
14 | O=C(O)Cn1ccc2ccccc21 | > 100000 nM | > 100000 nM
15 | CN1CCN(CCCOc2cccc3nc(Nc4ccc(F)c(F)c4)ccc23)CC1 | 2110 nM | 6730 nM
16 | O=C1Nc2ccccc2/C1=C/c1cn(CC(O)Cn2cc(/C=C3\C(=O)Nc4ccccc43)c3ccccc32)c2ccccc12 (stereo not drawn) | 2030 nM | 3750 nM
17 | COc1ccc2c(c1)O/C(=C\c1cccc(OCC(=O)Nc3nc(C)c(C)s3)c1)C2=O | 274 nM | 2120 nM
18 | O=C(CSc1nc2sc3c(c2c(=O)n1-c1ccc(Cl)cc1)CCCC3)NNC(=O)Nc1cccc(C(F)(F)F)c1 | 2210 nM | 5360 nM
19 | CCOC(=O)C#Cc1c(C(=O)OCC)nnn1[C@@H]1O[C@H](CO)[C@H]2OC3(CCCCC3)O[C@H]21 | 1780 nM | 3890 nM
20 | COc1cc(CN(c2ccc(C)cc2)C2OC(=O)c3ccccc32)cc(OC)c1OC (stereo not drawn) | 132 nM | 527 nM
21 | Cc1noc(C)c1-c1cnc2c(-c3ccc(C(=O)O)cc3)cn([C@@H](C)c3ccccn3)c2c1 | 309 nM | 27200 nM

Row | Compound | GI50 | TGI
22 | COc1ccc(-c2n[nH]nc2-c2cc(OC)c3c(c2)OCO3)cc1 | 23 nM | 42600 nM
23 | CCc1nn2ncccc2c1-c1ccnc(NC2CC2)n1 | > 21200 nM | > 25000 nM
24 | C=C1C(=O)O[C@H]2[C@H]1CC/C(COC(=O)NCCc1cccc(OC)c1)=C\CC[C@@]1(C)O[C@@H]21 | 850 nM | 3270 nM
25 | CCCCCCNC(=O)Oc1ccc(/C(=C(\C)c2ccc(Cl)cc2)c2ccc(OCCN(C)C)cc2)cc1 | 1590 nM | 3120 nM
26 | COc1cc(-c2cc3ncccc3c3[nH]c(=O)c4cccnc4c23)cc(OC)c1OC | 1610 nM | 96100 nM
27 | Oc1c(O)c(Cl)c(Cl)c(Cl)c1Cl | 2580 nM | 7340 nM
28 | Cn1cc(C2=C(c3ccccc3C(F)(F)F)C(=O)NC2=O)c2ccccc21 | 11600 nM | > 25000 nM
29 | COc1cc(Nc2ncnc(Nc3ccc4c(n3)NC(=O)C(C)(C)O4)n2)cc(OC)c1OC | 522 nM | > 100000 nM
30 | Cc1c(C)c2c(c(C)c1OCC(=O)O)CC[C@@](C)(CCC[C@@H](C)CCC[C@@H](C)CCCC(C)C)O2 | 58100 nM | 152000 nM
31 | O=C(/C=C\n1cnc(-c2cc(C(F)(F)F)cc(C(F)(F)F)c2)n1)N1CC(F)(F)C1 | 697 nM | 6190 nM
32 | Nc1ccc(-c2ccc3ncc4ccc(=O)n(-c5cccc(C(F)(F)F)c5)c4c3c2)cn1 | < 10 nM | 43.1 nM
33 | CCOc1ccc(C(C)=O)cc1NC(=O)c1cccc(-c2nnn(CC)n2)c1 | 557 nM | 6070 nM
34 | COc1cc(NC(C)CCCNC(C)C)c2ncccc2c1OC (stereo not drawn) | 25600 nM | > 100000 nM
35 | COc1cccc(NC(=O)c2sc3nc4c(cc3c2N)C(O)CCC4)c1 (stereo not drawn) | 88.1 nM | 6700 nM
36 | NCCOc1ncccc1/C=C1\c2ccccc2-c2ccc([N+](=O)[O-])cc21 | 71.2 nM | 351 nM
37 | COc1ccc2[nH]c(C(=O)OCc3ccc4cccc(O)c4n3)cc2c1 | 1370 nM | 3080 nM
38 | CCN(CC)c1ccc(/C=N/NC(=O)CSc2nc3ccccc3c(=O)n2Cc2ccc(S(N)(=O)=O)cc2)c(O)c1 | 524 nM | 5030 nM
39 | Cn1cncc1-c1c(F)cncc1NC(=O)c1c(N)nn2cc(F)cnc12 | 1960 nM | 16200 nM
40 | NC(CSC(c1ccccc1)(c1ccccc1)c1ccc(F)cc1)C(=O)O (stereo not drawn) | 233 nM | 
41 | CCN(CC)c1ccc2nc3ccc(N=Nc4ccc(O)cc4)cc3[n+](-c3ccccc3)c2c1 | 1470 nM | 3610 nM
42 | O=C(Nc1ccc2c(c1)OCCO2)C(=O)c1c[nH]c2ccccc12 | 1090 nM | 20700 nM
